Reference: patent EP0334119A1, “Compounds for inhibiting the biosynthesis of lipoxygenase-derived metabolites of arachidonic acid” (BOEHRINGER INGELHEIM PHARMACEUTICALS INC., priority 1988, dated 1989)
Where two headings read alike, the source gives them in different places.

How the values were obtained:
5-lipoxygenase [1] = target: T1, 5-lipoxygenase (Homo sapiens, UniProt P09917); experiment: Inhibition of 5-lipoxygenase (5-HETE biosynthesis) in human polymorphonuclear leukocytes; format: cell-based; details: human PMN's, 5-HETE band vs control; test concentration 1 microM; read-out: Inhibition of 5-LO % at 1 M
T1 construct: Human PMN's (5 x 10⁶ cells/0.5 mL) in pH 7.2 phosphate buffer; endogenous in cells; host or cells: human polymorphonuclear leukocytes (PMN)
T1 sequence (P09917 1-674): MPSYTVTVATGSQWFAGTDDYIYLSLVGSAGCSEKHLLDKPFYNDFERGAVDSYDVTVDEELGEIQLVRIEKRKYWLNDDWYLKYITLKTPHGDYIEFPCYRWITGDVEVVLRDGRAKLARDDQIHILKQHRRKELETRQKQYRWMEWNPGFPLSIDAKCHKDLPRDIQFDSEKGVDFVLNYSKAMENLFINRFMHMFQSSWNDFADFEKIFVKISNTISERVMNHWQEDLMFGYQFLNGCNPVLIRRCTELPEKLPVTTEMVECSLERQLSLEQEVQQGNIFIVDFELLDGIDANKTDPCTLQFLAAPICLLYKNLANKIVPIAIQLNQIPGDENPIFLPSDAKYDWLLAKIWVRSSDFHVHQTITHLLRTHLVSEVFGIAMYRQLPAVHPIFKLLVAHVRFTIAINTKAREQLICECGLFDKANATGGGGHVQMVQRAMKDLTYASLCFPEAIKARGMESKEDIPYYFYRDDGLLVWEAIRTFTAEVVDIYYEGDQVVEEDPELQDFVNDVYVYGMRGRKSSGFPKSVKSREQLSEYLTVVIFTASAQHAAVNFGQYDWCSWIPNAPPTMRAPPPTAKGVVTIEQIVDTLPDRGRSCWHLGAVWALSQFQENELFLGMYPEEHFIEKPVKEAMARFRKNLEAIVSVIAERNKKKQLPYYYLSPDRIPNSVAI
Experimental: Inhibition of 5-Lipoxygenase in Human Polymorphonuclear Leukocytes (PMN's)
The inhibition of 5-lipoxygenase is measured by determining whether and to what extent test compounds inhibit the amount of 5-HETE biosynthesized by human PMN's. 5-HETE biosynthesis serves as a marker for arachidonic acid metabolism by 5-lipoxygenase.
Human PMN's (5 x 10⁶ cells/0.5 mL) in pH 7.2 phosphate buffer containing Ca²⁺ (0.6 mM) and Mg²⁺ (1.0 mM) were incubated with test compound for 15 minutes at 37°C with shaking. Calcium ionophore A23187 (0.25 mM, 0.01 mL) and [¹⁴C] arachidonic acid (0.10 microCi in 0.025 mL 0.01N NaOH) were added, and the mixture incubated another 2.5 minutes. The reaction was terminated by the addition of 0.025 mL of 1.0 N HCl. The mixture was then extracted with ethyl acetate-methylene chloride (2:3) supplemented with 12 microgram/mL cold arachidonic acid to reduce degradation of the metabolites. After concentrating the organic phase, the number of microlitres containing 5 x 10⁴ cpm was determined and that volume applied to a silica gel plate. The plate was developed in methylene-chloride-methanol-acetic acid-water (90:8:1:0.8), air dried, and counted on a Berthold linear TLC analyzer. The integrated area of the 5-HETE band was determined and compared with the control (no drug).
In cases where the IC₅₀ was determined, the result is shown in microM.

[2] = tested on: A23187-Induced LTB₄ Generation; experiment: Ex vivo inhibition of A23187-induced LTB4 generation in squirrel monkey blood; set-up: species or system Squirrel Monkeys; details: Primates, 1 h, 60 min after dosing, vehicle per footnotes 2-4
Experimental: Ex Vivo Inhibition of A23187-Induced LTB₄ Generation in Squirrel Monkeys.
Incubation of squirrel monkey whole blood with calcium ionophore A23187 stimulates the production of LTB₄. This LTB₄ production can be inhibited by a lipoxygenase inhibitor in vitro by incubating the blood with the inhibitor prior to A23187 challenge. By dosing squirrel monkeys with a lipoxygenase inhibitor prior to withdrawal of a blood sample, one can determine the ability of the lipoxygenase inhibitor to be absorbed into the bloodstream by measuring the inhibition of A23187 induced LTB₄ production ex vivo.
Squirrel monkeys (400-650g) were fasted for 18 hours, anesthetized and dosed either orally or intraperitoneally with test compound. After the desired time period, blood was withdrawn from the femoral vein. The blood (0.5 mL) was heparinized, preincubated at 37°C for 5 minutes and stimulated with A23187 in DMSO to give a final concentration of 30 microM. The reaction was terminated with EGTA (final concentration 10 microM), and the blood centrifuged. Levels of LTB₄ in the plasma were then determined by radioimmunoassay.
The results shown in Table 4 illustrate the ability of a prodrug of type 2a or 2b to be absorbed after ip or po dosing compared to the parent compound 1a.

5-lipoxygenase [3] = experiment: Inhibition of antigen-induced, SRS-A mediated bronchioconstriction in conscious guinea pigs; format: in vivo; details: i.p. in 5% Tween 80 suspension, 30mg/kg, 60 minutes before antigen challenge; % inhibition of the decrease in Cdyn
Text: Inhibition of Antigen-Induced, SRS-A Mediated Bronchioconstriction in Conscious Guinea Pigs
This model is used to measure the ability of a drug to inhibit 5-lipoxygenase in vivo. SRS-A (slow reacting substance of anaphylaxis - also referred to as leukotrienes C₄, D₄ and E₄) is released by cells in the sensitized guinea pig upon stimulation by antigen, resulting in bronchioconstriction and change in pulmonary function. The leukotrienes are biosynthesized from arachidonic acid by the enzyme 5-lipoxygenase. Therefore, an inhibitor of 5-lipoxygenase could reduce the production of SRS-A and attenuate the bronchioconstriction.
Male outbred Hartley strain albino guinea pigs (250-300 grams) were sensitized by i.p. injection of ovalbumin (3mg/kg) followed by an i.p. injection of Bordetella pertussis (about 5x10⁹ killed organisms) and studied 14 days later.
Sensitized guinea pigs (fasted for 18 hours) were anesthesized and a catheter-tip pressure transducer was inserted into the pleural space of each animal. The animals are pretreated (i.p.) with pyrilamine (10mg/kg) and indomethacin (10mg/kg) to antagonize the effects of histamine and inhibit cyclooxygenase respectively. Cyclooxygenase products and histamine are released endogenously along with SRS-A, upon antigen challenge. Test compound is also administered i.p., 60 minutes before antigen challenge.
The guinea pigs were placed in a "head out" plethysmograph and allowed to recover from anesthesia. Airflow into the respiratory system, pleural pressure and airflow signals were measured, and tidal volume, dynamic pulmonary compliance (Cdyn) and breathing frequency were calculated according to a published technique (E.G. Damen et al., Toxicol. Appl. Pharmacol., 1982, 64, 465). After baseline values for pulmonary function were obtained, the animals were challenged by aerosolized ovalbumin. The overall changes in pulmonary function parameters were determined by calculating the mean changes from baseline during the period 5 to 15 minutes following antigen challenge.
Drug efficacy was determined by comparing the mean of the percent decrease in Cdyn from baseline in drug treated animals (N=4-6) to control animals (N=10-12).

5-lipoxygenase [4] = experiment: Inhibition of antigen-induced, late phase inflammatory cell infiltration in guinea pigs; format: in vivo; details: 60 minutes before antigen challenge, lung lavage four hours after challenge
Text: Inhibition of Antigen-Induced, Late Phase Inflammatory Cell Infiltration in Guinea Pigs
This model is used to measure the ability of a drug to inhibit 5-lipoxygenase in vivo. In addition to SRS-A, a chemotactic substance LTB₄ is also released by cells in the sensitized guinea pig lung upon stimulation by antigen. As a result there is a measurable influx of cells into the lung. Therefore, an inhibitor of 5-lipoxygenase could reduce the formation of LTB₄ and thereby reduce the cell influx into the lung.
Male outbred Hartley strain albino guinea pigs (250-300 grams) were sensitized to ovalbumin as in the procedure for inhibition of antigen-induced, SRS-A mediated bronchioconstriction in conscious guinea pigs.
Sensitized guinea pigs were fasted and pretreated with pyrilamine and indomethacin as in bronchioconstriction testing procedure. Test compounds, suspended in 1% acacia, were administered 60 minutes before antigen challenge. […] Whole lung lavage was performed with three 5 mL aliquots of normal saline buffered with sodium bicarbonate.
Total cell counts were performed on a Coulter Counter, and differential cell counts were performed. Compounds were evaluated for their ability to alter the antigen-induced total cell influx and, more specifically, neutrophil (PMN) influx.

SMILES | inhibition at 1 µM (5-lipoxygenase [1]) [%] | % Inhibition of Bronchioconstriction (5-lipoxygenase [3]) [%] | further results
Cc1cc(C=Cc2cccs2)cc(C)c1O [Compound 1a, 2,6-Dimethyl-4-[2-(2-thienyl)ethenyl]phenol] | 91 | 75 | inhibition at 30 mg/kg ([2]; 30 mg/kg ip, read-out: Percent Inh. Monkey 2): 12%; inhibition at 30 mg/kg ([2]; 30 mg/kg ip, read-out: Percent Inh. Monkey 3): 4%; inhibition at 30 mg/kg ([2]; 30 mg/kg ip, read-out: Percent Inh. Monkey #1): 47%; inhibition at 30 mg/kg ([2]; 30 mg/kg po, read-out: Percent Inh. Monkey 2): 0%; inhibition at 30 mg/kg ([2]; 30 mg/kg po, read-out: Percent Inh. Monkey 3): 0%; inhibition at 30 mg/kg ([2]; 30 mg/kg po, read-out: Percent Inh. Monkey #1): 18%; % Inh. PMN (5-lipoxygenase [4]; 30 mg/kg ip): 95%; % Inh. Total Cells (5-lipoxygenase [4]; 30 mg/kg ip): 78%; % Inh. PMN (5-lipoxygenase [4]; 30 mg/kg po): 14%; % Inh. Total Cells (5-lipoxygenase [4]; 30 mg/kg po): 51%
CC(C)c1cc(C=Cc2cccnc2)cc(C(C)C)c1O [Compound 1ab] | 73 | 34 | –
COc1cc(C=Cc2cccs2)cc(C)c1O [Compound 1d, 2-Methoxy-6-methyl-4-[2-(2-thienyl)ethenyl]phenol] | 65 | 41 | –
CCc1cc(C=Cc2cccs2)cc(OC)c1O [Compound 1e] | 85 | 51 | –
CCCc1cc(C=Cc2cccs2)cc(OC)c1O [Compound 1f] | 76 | 57 | % Inh. PMN (5-lipoxygenase [4]; 30 mg/kg ip): 54%; % Inh. Total Cells (5-lipoxygenase [4]; 30 mg/kg ip): 77%
Cc1cc(C=Cc2ccsc2)cc(C)c1O [Compound 1o] | 84 | 26 | –
Cc1cc(C=Cc2cccnc2)cc(C)c1O [Compound 1x] | 62 | 39 | –
